pIC50: −log10 of the molar value.
These molecules were tested against T1, human MDM2 (GST-hMDM2 1-188), interaction with biotinylated-p53 (1-83) (Homo sapiens, UniProt Q00987) (assay: improved HTRF assay (HTRF2 assay), inhibition of HDM2-p53 interaction). Conditions: 0.2 nM GST-hMDM2, 0.5 nM biotinylated-p53, 100 mM KF.
T1 construct: Amino acid residues 1-188 of human MDM2 were expressed; made in house; host or cells: Escherichia coli
Type: binding
Method in brief: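 GST-hMDM2 preincubated 20 min at RT with serially diluted compound, then biotinylated p53 (1-83, E. coli) added for 60 min. Detection with SA-XLent, anti-GST cryptate and KF, equilibrated >4 h; final DMSO 2%. TR-FRET read; % inhibition calculated relative to nutlin-3.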

T1 sequence (Q00987 1-188): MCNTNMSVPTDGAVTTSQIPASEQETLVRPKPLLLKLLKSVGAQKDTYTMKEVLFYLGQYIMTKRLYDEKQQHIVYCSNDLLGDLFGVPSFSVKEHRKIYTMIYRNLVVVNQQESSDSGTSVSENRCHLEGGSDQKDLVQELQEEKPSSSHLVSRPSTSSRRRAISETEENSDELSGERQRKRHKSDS

Structure (SMILES) | pIC50
C[C@@H]1CCCN1S(=O)(=O)C[C@H](C1CC1)N1C(=O)[C@@H](CC(=O)O)O[C@H](c2cccc(Cl)c2)[C@H]1c1ccc(Cl)cc1 (single isomer, unassigned) [Example 304, 2-((2R,5R,6R)-6-(3-Chlorophenyl)-5-(4-chlorophenyl)-4-((S)-1-cyclopropyl-2-(((R)-2-methylpyrrolidin-1-yl)sulfonyl)ethyl)-3-oxomorpholin-2-yl)acetic acid or 2-((2S,5R,6R)-6-(3-chlorophenyl)-5-(4-chlorophenyl)-4-((S)-1-cyclopropyl-2-(((R)-2-methylpyrrolidin-1-yl)sulfonyl)ethyl)-3-oxomorpholin-2-yl)acetic acid] | > 9.00
C[C@@H]1CCCN1S(=O)(=O)C[C@H](C1CC1)N1C(=O)[C@@H](CC(=O)O)O[C@H](c2cccc(Cl)c2)[C@H]1c1ccc(Cl)cc1 (single isomer, unassigned) [Example 305, 2-((2R,5R,6R)-6-(3-Chlorophenyl)-5-(4-chlorophenyl)-4-((S)-1-cyclopropyl-2-(((R)-2-methylpyrrolidin-1-yl)sulfonyl)ethyl)-3-oxomorpholin-2-yl)acetic acid or 2-((2S,5R,6R)-6-(3-chlorophenyl)-5-(4-chlorophenyl)-4-((S)-1-cyclopropyl-2-(((R)-2-methylpyrrolidin-1-yl)sulfonyl)ethyl)-3-oxomorpholin-2-yl)acetic acid] | > 9.00
CC1(C)CCCN1S(=O)(=O)C[C@H](C1CC1)N1C(=O)[C@@H](CC(=O)O)O[C@H](c2cccc(Cl)c2)[C@H]1c1ccc(Cl)cc1 (single isomer, unassigned) [Example 306, 2-((2R,5R,6R)-6-(3-Chlorophenyl)-5-(4-chlorophenyl)-4-((S)-1-cyclopropyl-2-((2,2-dimethylpyrrolidin-1-yl)sulfonyl)ethyl)-3-oxomorpholin-2-yl)acetic acid or 2-((2R,5R,6R)-6-(3-chlorophenyl)-5-(4-chlorophenyl)-4-((S)-1-cyclopropyl-2-((2,2-dimethylpyrrolidin-1-yl)sulfonyl)ethyl)-3-oxomorpholin-2-yl)acetic acid] | > 9.00
CC1(C)CCCN1S(=O)(=O)C[C@H](C1CC1)N1C(=O)[C@@H](CC(=O)O)O[C@H](c2cccc(Cl)c2)[C@H]1c1ccc(Cl)cc1 (single isomer, unassigned) [Example 307, 2-((2R,5R,6R)-6-(3-Chlorophenyl)-5-(4-chlorophenyl)-4-((S)-1-cyclopropyl-2-((2,2-dimethylpyrrolidin-1-yl)sulfonyl)ethyl)-3-oxomorpholin-2-yl)acetic acid or 2-((2R,5R,6R)-6-(3-chlorophenyl)-5-(4-chlorophenyl)-4-((S)-1-cyclopropyl-2-((2,2-dimethylpyrrolidin-1-yl)sulfonyl)ethyl)-3-oxomorpholin-2-yl)acetic acid] | > 9.00
CC(C)(C)S(=O)(=O)C[C@H](C1CC1)N1C(=O)[C@@H](CC(=O)O)O[C@H](c2cccc(Cl)c2)[C@H]1c1ccc(Cl)c(F)c1 (single isomer, unassigned) [Example 308, 2-((2R,5R,6R)-4-((S)-2-(tert-Butylsulfonyl)-1-cyclopropylethyl)-5-(4-chloro-3-fluorophenyl)-6-(3-chlorophenyl)-3-oxomorpholin-2-yl)acetic acid or 2-((2S,5R,6R)-4-((S)-2-(tert-butylsulfonyl)-1-cyclopropylethyl)-5-(4-chloro-3-fluorophenyl)-6-(3-chlorophenyl)-3-oxomorpholin-2-yl)acetic acid] | > 9.00
CC(C)(C)S(=O)(=O)C[C@H](C1CC1)N1C(=O)[C@@H](CC(=O)O)O[C@H](c2cccc(Cl)c2)[C@H]1c1ccc(Cl)c(F)c1 (single isomer, unassigned) [Example 309, 2-((2R,5R,6R)-4-((S)-2-(tert-Butylsulfonyl)-1-cyclopropylethyl)-5-(4-chloro-3-fluorophenyl)-6-(3-chlorophenyl)-3-oxomorpholin-2-yl)acetic acid or 2-((2S,5R,6R)-4-((S)-2-(tert-butylsulfonyl)-1-cyclopropylethyl)-5-(4-chloro-3-fluorophenyl)-6-(3-chlorophenyl)-3-oxomorpholin-2-yl)acetic acid] | 9.00
CC(C)[C@@H](CS(=O)(=O)C(C)(C)C)N1C(=O)[C@@H](CC(=O)O)O[C@H](c2cccc(Cl)c2)[C@H]1c1ccc(Cl)c(F)c1 (single isomer, unassigned) [Example 310] | 9.00
CC(C)[C@@H](CS(=O)(=O)C(C)(C)C)N1C(=O)[C@@H](CC(=O)O)O[C@H](c2cccc(Cl)c2)[C@H]1c1ccc(Cl)c(F)c1 (single isomer, unassigned) [Example 311] | 8.30
CC(C)[C@@H](CS(=O)(=O)C(C)(C)C)N1C(=O)[C@@H](CC(=O)O)O[C@H](c2cccc(Cl)c2)[C@H]1c1ccc(Cl)c(F)c1 (single isomer, unassigned) [Example 312] | 6.55
CC(C)[C@@H](CS(=O)(=O)C(C)(C)C)N1C(=O)[C@@H](CC(=O)O)O[C@H](c2cccc(Cl)c2)[C@H]1c1ccc(Cl)c(F)c1 (single isomer, unassigned) [Example 313] | 7.42
O=C(O)C[C@H]1O[C@H](c2cccc(Cl)c2)[C@@H](c2ccc(Cl)c(F)c2)N([C@H](CN(c2ccccc2F)S(=O)(=O)C2CC2)C2CC2)C1=O (single isomer, unassigned) [Example 314, 2-((2R,5R,6R)-5-(4-Chloro-3-fluorophenyl)-6-(3-chlorophenyl)-4-((S)-1-cyclopropyl-2-(N-(2-fluorophenyl)cyclopropanesulfonamido)ethyl)-3-oxomorpholin-2-yl)acetic acid or 2-((2S,5R,6R)-5-(4-chloro-3-fluorophenyl)-6-(3-chlorophenyl)-4-((S)-1-cyclopropyl-2-(N-(2-fluorophenyl)cyclopropanesulfonamido)ethyl)-3-oxomorpholin-2-yl)acetic acid] | > 9.00
O=C(O)C[C@H]1O[C@H](c2cccc(Cl)c2)[C@@H](c2ccc(Cl)c(F)c2)N([C@H](CN(c2ccccc2F)S(=O)(=O)C2CC2)C2CC2)C1=O (single isomer, unassigned) [Example 315, 2-((2R,5R,6R)-5-(4-Chloro-3-fluorophenyl)-6-(3-chlorophenyl)-4-((S)-1-cyclopropyl-2-(N-(2-fluorophenyl)cyclopropanesulfonamido)ethyl)-3-oxomorpholin-2-yl)acetic acid or 2-((2S,5R,6R)-5-(4-chloro-3-fluorophenyl)-6-(3-chlorophenyl)-4-((S)-1-cyclopropyl-2-(N-(2-fluorophenyl)cyclopropanesulfonamido)ethyl)-3-oxomorpholin-2-yl)acetic acid] | > 9.00
CC[C@@H](CS(=O)(=O)C(C)(C)C)N1C(=O)[C@@H](CC(=O)O)O[C@H](c2cccc(Cl)c2)[C@H]1c1ccc(Cl)cc1F (single isomer, unassigned) [Example 316, 2-((2R,5R,6R)-4-((S)-1-(tert-Butylsulfonyl)butan-2-yl)-5-(4-chloro-2-fluorophenyl)-6-(3-chlorophenyl)-3-oxomorpholin-2-yl)acetic acid or 2-((2S,5R,6R)-4-((S)-1-(tert-butylsulfonyl)butan-2-yl)-5-(4-chloro-2-fluorophenyl)-6-(3-chlorophenyl)-3-oxomorpholin-2-yl)acetic acid] | 8.70
CC[C@@H](CS(=O)(=O)C(C)(C)C)N1C(=O)[C@@H](CC(=O)O)O[C@H](c2cccc(Cl)c2)[C@H]1c1ccc(Cl)cc1F (single isomer, unassigned) [Example 317, 2-((2R,5R,6R)-4-((S)-1-(tert-Butylsulfonyl)butan-2-yl)-5-(4-chloro-2-fluorophenyl)-6-(3-chlorophenyl)-3-oxomorpholin-2-yl)acetic acid or 2-((2S,5R,6R)-4-((S)-1-(tert-butylsulfonyl)butan-2-yl)-5-(4-chloro-2-fluorophenyl)-6-(3-chlorophenyl)-3-oxomorpholin-2-yl)acetic acid] | 8.52
CC(C)(C)S(=O)(=O)C[C@H](C1CC1)N1C(=O)[C@@H](CC(=O)O)O[C@H](c2ccc(Cl)c(Cl)c2)[C@H]1c1ccc(Cl)cc1 (single isomer, unassigned) [Example 318, 2-((2R,5R,6R)-4-((S)-2-(tert-Butylsulfonyl)-1-cyclopropylethyl)-5-(4-chlorophenyl)-6-(3,4-dichlorophenyl)-3-oxomorpholin-2-yl)acetic acid or 2-((2S,5R,6R)-4-((S)-2-(tert-butylsulfonyl)-1-cyclopropylethyl)-5-(4-chlorophenyl)-6-(3,4-dichlorophenyl)-3-oxomorpholin-2-yl)acetic acid] | 8.10
CC(C)(C)S(=O)(=O)C[C@H](C1CC1)N1C(=O)[C@@H](CC(=O)O)O[C@H](c2ccc(Cl)c(Cl)c2)[C@H]1c1ccc(Cl)cc1 (single isomer, unassigned) [Example 319, 2-((2R,5R,6R)-4-((S)-2-(tert-Butylsulfonyl)-1-cyclopropylethyl)-5-(4-chlorophenyl)-6-(3,4-dichlorophenyl)-3-oxomorpholin-2-yl)acetic acid or 2-((2S,5R,6R)-4-((S)-2-(tert-butylsulfonyl)-1-cyclopropylethyl)-5-(4-chlorophenyl)-6-(3,4-dichlorophenyl)-3-oxomorpholin-2-yl)acetic acid] | 6.95
CC(C)(C)S(=O)(=O)C[C@H](C1CC1)N1C(=O)[C@@H](CC(=O)O)O[C@H](c2ccc(F)c(Cl)c2)[C@H]1c1ccc(Cl)cc1 (single isomer, unassigned) [Example 320, 2-((2R,5R,6R)-4-((S)-2-(tert-Butylsulfonyl)-1-cyclopropylethyl)-6-(3-chloro-4-fluorophenyl)-5-(4-chlorophenyl)-3-oxomorpholin-2-yl)acetic acid or 2-((2S,5R,6R)-4-((S)-2-(tert-butylsulfonyl)-1-cyclopropylethyl)-6-(3-chloro-4-fluorophenyl)-5-(4-chlorophenyl)-3-oxomorpholin-2-yl)acetic acid] | 8.52
